{
  "source": "patent US6277825A",
  "about": "(priority 1999, dated 2001)",
  "key": {"[1]": {"system": "Frings audiogenic seizure-susceptible mice", "conditions": "mouse, in vivo"}, "[2]": {"system": "Frings audiogenic seizure susceptible mice", "format": "in vivo", "conditions": "for ED50: mouse, in vivo"}, "[3]": {"system": "CF No. 1 mice", "conditions": "mouse, in vivo"}, "[4]": {"system": "young (<2 weeks old) mice", "format": "in vivo"}, "[5]": {"system": "young (<2 weeks old) mice", "format": "in vivo", "remark": "listed apart in the source"}, "[6]": {"system": "young (<2 weeks old) mice", "format": "in vivo", "remark": "listed apart in the source"}, "[7]": {"conditions": "37° C.; 50 μg/ml"}},
  "note": "Values joined by “and” are separate entries in the source; they are usually repeats but may differ in a detail not shown here. Equal values may be shown once. Read-outs that look alike come from different tables or passages of the source. Where no end group is shown, it is not given here. [ ]: non-standard residue; d: D form. Gla = N[C@@H](CC(C(=O)O)C(=O)O)C(=O)O",
  "data": [
    {"compound": "NC(=O)OCC(COC(N)=O)c1ccccc1", "note": "[Felbamate, reference compound]", "values": [
      {"measurement": "TD50 (rotorod performance, minimal motor impairment)", "setting": "[1]", "value": "> 630", "unit": "nmol"},
      {"measurement": "animals protected", "setting": "[2]; 30 min", "value": "5/8 and 4/8"}
    ]},
    {"compound": "CC(C(O)c1ccc(O)cc1)N1CCC(Cc2ccccc2)CC1", "note": "(centres unmarked) [Ifenprodil, reference compound]", "values": [
      {"measurement": "P.I. (TD50/ED50)", "setting": "[1]", "value": "< 1"},
      {"measurement": "TD50", "setting": "[1]", "value": "< 25"},
      {"measurement": "ED50", "setting": "[2]", "value": "~ 25 nmols"}
    ]},
    {"compound": "Nc1nnc(-c2cccc(Cl)c2Cl)c(N)n1", "note": "[Lamotrigine, reference compound]", "values": [
      {"measurement": "PI (TD50/ED50)", "setting": "[1]", "value": "> 2.0"},
      {"measurement": "TD50 (rotorod performance, minimal motor impairment)", "setting": "[1]", "value": "> 290", "unit": "nmol"},
      {"measurement": "ED50", "setting": "[2]", "value": 146, "unit": "nmol"}
    ]},
    {"compound": "CCC1(c2ccccc2)C(=O)NC(=O)NC1=O", "note": "[Phenobarbitol, reference compound]", "values": [
      {"measurement": "PI (TD50/ED50)", "setting": "[1]", "value": 0.5},
      {"measurement": "TD50 (rotorod performance, minimal motor impairment)", "setting": "[1]", "value": 68.8, "unit": "nmol"}
    ]},
    {"compound": "CC1(C)O[C@@H]2[C@@H](CO[C@@]3(COS(N)(=O)=O)OC(C)(C)O[C@@H]23)O1", "note": "[Topiramate, reference compound]", "values": [
      {"measurement": "TD50 (rotorod performance, minimal motor impairment)", "setting": "[1]", "value": "no marked"},
      {"measurement": "ED50", "setting": "[2]", "value": "> 150", "unit": "nmol"}
    ]},
    {"compound": "CCCC(CCC)C(=O)O", "note": "[Valproic Acid, reference compound]", "values": [
      {"measurement": "PI (TD50/ED50)", "setting": "[1]", "value": "1.1-2.2"},
      {"measurement": "ED50", "setting": "[2]", "value": 566, "unit": "nmol"}
    ]},
    {"compound": "Conantokin T (GE[Gla][Gla]YQKML[Gla]NLR[Gla]AEVKKNA-NH2; N-terminus assumed; SMILES CSCC[C@H](NC(=O)[C@H](CCCCN)NC(=O)[C@H](CCC(N)=O)NC(=O)[C@H](Cc1ccc(O)cc1)NC(=O)[C@H](CC(C(=O)O)C(=O)O)NC(=O)[C@H](CC(C(=O)O)C(=O)O)NC(=O)[C@H](CCC(=O)O)NC(=O)CN)C(=O)N[C@@H](CC(C)C)C(=O)N[C@@H](CC(C(=O)O)C(=O)O)C(=O)N[C@@H](CC(N)=O)C(=O)N[C@@H](CC(C)C)C(=O)N[C@@H](CCCNC(=N)N)C(=O)N[C@@H](CC(C(=O)O)C(=O)O)C(=O)N[C@@H](C)C(=O)N[C@@H](CCC(=O)O)C(=O)N[C@H](C(=O)N[C@@H](CCCCN)C(=O)N[C@@H](CCCCN)C(=O)N[C@@H](CC(N)=O)C(=O)N[C@@H](C)C(N)=O)C(C)C) [Con T]", "values": [
      {"measurement": "anticonvulsant activity", "setting": "[3]", "value": "anticonvulsant activity"},
      {"measurement": "Righting Reflex, mice that lost reflex/tested", "setting": "[4]; 30 min", "value": "2/4"},
      {"measurement": "Righting Reflex, mice that lost reflex/tested", "setting": "[4]; 60 min", "value": "2/4"},
      {"measurement": "Sleepy Test, positive mice/tested", "setting": "[5]; 30 min", "value": "4/4"},
      {"measurement": "Sleepy Test, positive mice/tested", "setting": "[5]; 60 min", "value": "4/4"},
      {"measurement": "Catalepsy Test, positive mice/tested", "setting": "[6]; 30 min", "value": "3/4"},
      {"measurement": "Catalepsy Test, positive mice/tested", "setting": "[6]; 60 min", "value": "1/4"},
      {"measurement": "stability in biological media", "setting": "[7]", "value": "stable in all biological media for up to 4 hours"},
      {"measurement": "P.I. (TD50/ED50)", "setting": "[1]", "value": 13},
      {"measurement": "TD50", "setting": "[1]", "value": 0.228, "unit": "nmols"},
      {"measurement": "behavioral toxicity (rotorod test)", "setting": "[1]", "value": "No animals exhibited behavioral toxicity"},
      {"measurement": "#Protected/#Tested", "setting": "[2]; 10 min", "value": "0/9"},
      {"measurement": "% Protected", "setting": "[2]; 10 min", "value": 0, "unit": "%"},
      {"measurement": "#Protected/#Tested", "setting": "[2]; 20 min", "value": "1/2"},
      {"measurement": "% Protected", "setting": "[2]; 20 min", "value": 50, "unit": "%"},
      {"measurement": "#Protected/#Tested", "setting": "[2]; 30 min", "value": "2/6"},
      {"measurement": "% Protected", "setting": "[2]; 30 min", "value": 33, "unit": "%"},
      {"measurement": "#Protected/#Tested", "setting": "[2]; 60 min", "value": "4/6"},
      {"measurement": "% Protected", "setting": "[2]; 60 min", "value": 67, "unit": "%"},
      {"measurement": "#Protected/#Tested", "setting": "[2]; 240 min", "value": "1/6"},
      {"measurement": "% Protected", "setting": "[2]; 240 min", "value": 17, "unit": "%"}
    ]}
  ]
}
